The source of these data is US20090144853A1, “Control of Gene Expression in Plants” (UNIVERSITY OF DURHAM, priority 2005, published 2009).

One assay has as its system LRI-1 promoter. Description: GUS histochemical staining of LRI-1 promoter trap seedlings grown with hormones or hormone signalling inhibitors. Format: in vivo, Arabidopsis thaliana. On the procedure: (§1) The expression of the GUS promoter trap was analysed over a developmental time course in uninfected Arabidopsis seedlings that had been grown aseptically on a synthetic growth medium. Prior to analysis, seeds of the transgenic line were surface sterilised by treatment with 70% (v/v) ethanol for 3 minutes and 10% (v/v) commercial bleach for 20 minutes. The seeds were then washed with water and grown on half-strength Murashige and Skoog medium (½MS), supplemented with 10 g/l sucrose. The seedlings were grown in the presence of continuous light at 25° C. Tissue localisation of the GUS enzyme activity was determined at intervals after germination by staining for up to 12 hours at 37° C. in 1 mM 5-bromo-4-chloro-3-indoyl-β-D-glucuronic acid (X-gluc), according to the method of Jefferson et al (1987, EMBO J. 6, 3901-3907), wherein the method was modified by the use of buffer comprising 100 mM sodium phosphate (pH 7.0), 10 mM EDTA, 0.1% (v/v) Triton X-100 and 1 mM potassium ferricyanide to inhibit diffusion of the reaction intermediate. This solution was known as GUS buffer. Excess chlorophyll was removed by soaking the stained tissues in 70% (v/v) ethanol.
(§2) In order to investigate the regulation of the LRI-1 promoter activity, seeds that were homozygous for the LRI-1 gene fusion were germinated aseptically on ½MS10 medium in the presence or absence of hormones. At 9 dpg, the seedlings were subsequently transferred to ½MS10 medium containing either hormones or inhibitors of hormone signalling. Hormone treatments used for the purposes of this invention included, but were not limited to: 0.25, 2.5 or 10 μM 1-naphthaleneacetic acid (NAA, a synthetic auxin); 0.25, 2.5 or 10 μM kinetin (a synthetic cytokinin); 10 or 100 μM silver nitrate (an inhibitor of ethylene signalling); 10 or 100 μM 1-aminocyclopropane-1-carboxylic acid (ACC, a precursor of ethylene); 10 or 100 μM naphthylphthalamic acid (NPA) or 10 μM triiodobenozoic acid (TIBA). NPA and TIBA are inhibitors of polar auxin transport. After growth on medium in the presence or absence of hormones, the seedlings were transferred to a solution of GUS buffer and analysed for GUS activity (indicated by the presence of a blue precipitate).

In assay [1] the test system is Arabidopsis thaliana seedlings. Description: Root development of LRI-1 seedlings grown with hormones or hormone signalling inhibitors. Format: in vivo. How it is done: as §1, §2
The test system of another assay is AtPRB2 promoter. Description: GUS activity of 2.47 kb AtPRB2 promoter fragment::GUS transgenic seedlings treated with exogenous auxin. Format: in vivo, Arabidopsis thaliana. Conditions: 9 dpg on ½MS10, then 2.5 μM for a further 1, 3 or 5 days; except at the root tips. The text has this: To confirm that the 5′ flanking sequence upstream of the left T-DNA was responsible for the observed GUS activity in line LRI-1, the sequence was cloned and fused to each of the gusA and the GFP reporter genes respectively. The technique of PCR was used to amplify a 1.47 kb genomic fragment immediately upstream of the left T-DNA border. This 1.47 kb fragment was cloned upstream of the respective reporter genes and subsequently introduced into Arabidopsis thaliana plants by the dipping method of Agrobacterium tumefaciens-mediated transformation (Clough and Bent 1998 Plant J. 16, 735-743). In order to determine whether the promoter activity of the cloned sequence pLRI-1 was similar to the promoter region upstream of gene AtPRB2, a 2.47 kb fragment immediately upstream of the gene was cloned. In addition, shorter fragments which were 1 kb, 0.5 kb and 0.2 kb upstream of AtPRB2 were cloned and fused to the gusA reporter gene in the binary vector pΔGUSCIRCE (Casson et al, 2002 Plant Cell 14, 1705-1721), before introduction into plants by Agrobacterium-mediated transformation.
Using a similar approach, the activity of the 2.47 kb AtPRB2 gene fragment was determined in transgenic Arabidopsis lines. […]

[2] abbreviates: 9 days without compound, then 10 μM for a further 2 days.
[3] abbreviates: grown on 2.5 μM or 10 μM for up to 9 days.
Setting [4] is: transferred to compound after growth on hormone-free medium, higher concentrations.

As to `NC1(C(=O)O)CC1` [ACC, 1-aminocyclopropane-1-carboxylic acid], in the assay with LRI-1 promoter (germinated and grown in presence of 10 μM for up to 9 dpg), the “level of GUS activity” value is “reduction in the level of GUS activity”. Moreover, the GUS activity entry in the assay on LRI-1 promoter (grown in presence of 100 μM, stronger expression at the base of lateral roots) is listed as “induction of GUS activity in the hypocotyl”.

As to `O=C(O)Cc1cccc2ccccc12` [NAA, 1-naphthaleneacetic acid], the adventitious root development result in assay [1] (after transfer at 9 dpg, 2.5 μM NAA) is on record as “developed adventitious roots on the hypocotyl”; in assay [1] (grown for 9 dpg in presence of auxin, roots GUS-positive), “adventitious roots developed from the shortened hypocotyl”. Besides, the root elongation result in assay [1] (seedlings germinated on ½MS10 in presence of NAA, most prominent at 10 μM) was “dramatic reduction in root elongation”. Also, the “AtPRB2::GUS activity” value in the assay on AtPRB2 promoter is on record as “strong induction of AtPRB2::GUS activity throughout the root”. Besides, in the assay on LRI-1 promoter (9 dpg on ½MS10, then transfer to 0.25, 2.5 or 10 μM NAA for 1, 3 or 5 days, except at the root tip), the “GUS activity in root” value is listed as “strong GUS activity throughout the root”. The “GUS activity in aerial parts” value in the assay on LRI-1 promoter (after transfer at 9 dpg, two lower concentrations of NAA tested) is given as “No GUS activity was detected”. Besides, the GUS activity result in the assay on LRI-1 promoter (seedlings germinated on ½MS10 in presence of NAA (0.25, 2.5 or 10 μM), most prominent at 10 μM) is listed as “strong throughout the root of the seedling”. Further, in the assay on LRI-1 promoter (seedlings treated with 2.5 μM exogenous auxin), the “LRI-1::GUS expression” value is given as “induction of LRI-1::GUS expression throughout the Arabidopsis root”.

For the compound `O=C(O)c1cc(I)cc(I)c1I` [TIBA, triiodobenozoic acid], the “new lateral root formation” value in assay [1] (setting [2]) is on record as “inhibition of new lateral root formation”. Also, the lateral root development entry in assay [1] (germinated and grown 5 dpg in presence of 10 μM) is “No lateral root development was observed”. The “existing GUS activity at previously formed lateral roots” value in the assay with LRI-1 promoter (setting [2]) is listed as “remained unaffected”. Also, in the assay with LRI-1 promoter (grown 5 dpg in presence of 10 μM, some seedlings, at sites where lateral roots would normally emerge), the GUS activity result is recorded as “localised but low level GUS activity”.

For the compound `c1coc(CNc2ncnc3[nH]cnc23)c1` [kinetin], the figures for the lateral root formation entry in assay [1] (setting [3]) and in assay [1] (setting [4]) were “no lateral root formation was observed” and “reduction in lateral root formation”, respectively. Further, the GUS activity entry with LRI-1 promoter (setting [3]) is recorded as “detected as normal”; in the assay with LRI-1 promoter (setting [4]) it was “detectable as normal”.

In the case of `O=[N+]([O-])[O-].[Ag+]` [silver nitrate], the “GUS activity associated with the LRI-1 promoter” value with LRI-1 promoter (germination and growth for 3, 5 or 9 days in presence of 10 μM) is reported as “reduction in GUS activity”.
